The target in one data set is T1, human NPP3 (Homo sapiens, UniProt O14638).
T1 construct: made in house; host or cells: COS-7 cells (transfected; protein extract / cell lysate)
T1 sequence (O14638 1-875): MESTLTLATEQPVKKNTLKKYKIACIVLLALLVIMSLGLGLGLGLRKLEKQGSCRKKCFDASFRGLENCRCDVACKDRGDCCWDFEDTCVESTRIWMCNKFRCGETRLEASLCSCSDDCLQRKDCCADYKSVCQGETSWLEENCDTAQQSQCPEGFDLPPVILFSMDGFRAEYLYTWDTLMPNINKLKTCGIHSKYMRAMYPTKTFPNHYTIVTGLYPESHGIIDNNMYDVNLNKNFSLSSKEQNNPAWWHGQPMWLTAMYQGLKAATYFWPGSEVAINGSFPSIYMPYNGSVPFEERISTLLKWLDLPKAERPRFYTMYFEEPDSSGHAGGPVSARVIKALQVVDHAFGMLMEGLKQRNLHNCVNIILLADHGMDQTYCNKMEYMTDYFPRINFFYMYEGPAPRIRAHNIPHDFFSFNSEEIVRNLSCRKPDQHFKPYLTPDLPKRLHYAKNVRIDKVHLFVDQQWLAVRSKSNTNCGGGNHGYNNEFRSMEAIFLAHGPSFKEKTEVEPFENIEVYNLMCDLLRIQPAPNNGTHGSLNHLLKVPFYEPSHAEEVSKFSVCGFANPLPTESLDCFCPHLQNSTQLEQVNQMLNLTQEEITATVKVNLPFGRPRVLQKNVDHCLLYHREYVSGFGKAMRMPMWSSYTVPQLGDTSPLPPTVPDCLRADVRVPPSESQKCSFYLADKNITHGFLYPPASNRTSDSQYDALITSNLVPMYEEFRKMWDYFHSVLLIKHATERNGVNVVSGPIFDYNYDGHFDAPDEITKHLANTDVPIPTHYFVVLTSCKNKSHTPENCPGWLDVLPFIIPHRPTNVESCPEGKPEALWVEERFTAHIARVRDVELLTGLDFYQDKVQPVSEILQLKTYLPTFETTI
Put plainly: Inhibition of NPP3 activity. The class given is biochemical. Conditions: for inhibition at 100 µM: read-out: inhibition of NPP3 activity; for inhibition of pnp-TMP hydrolysis by NPP3: analogue and pnp-TMP 100 μM. The method, then: Pnp-TMP hydrolyses were carried out at 37° C. in 0.2 ml of the following incubation mixture: in mM, 1 CaCl2, 130 NaCl, 5 KCl and 50 Tris, pH 8.5, with or without the analogue tested and/or substrates. Substrates and analogues were all used at the final concentration of 100 μM. […] For pnp-TMP hydrolysis, the production of para-nitro-phenol was measured at […], 15 min after the initiation of the reaction.
The samples were centrifuged for 5 min at 13,000×g. Supernatants were neutralized with 1 M KOH (Fisher Scientific, Ottawa, ON, Canada) at 4° C. and centrifuged for 5 min at 13,000×g.

Data set [1] has as its target T2, human NPP1 (Homo sapiens, UniProt P22413).
T2 construct: made in house; host or cells: COS-7 cells (transfected; protein extract / cell lysate)
T2 sequence (P22413 1-925): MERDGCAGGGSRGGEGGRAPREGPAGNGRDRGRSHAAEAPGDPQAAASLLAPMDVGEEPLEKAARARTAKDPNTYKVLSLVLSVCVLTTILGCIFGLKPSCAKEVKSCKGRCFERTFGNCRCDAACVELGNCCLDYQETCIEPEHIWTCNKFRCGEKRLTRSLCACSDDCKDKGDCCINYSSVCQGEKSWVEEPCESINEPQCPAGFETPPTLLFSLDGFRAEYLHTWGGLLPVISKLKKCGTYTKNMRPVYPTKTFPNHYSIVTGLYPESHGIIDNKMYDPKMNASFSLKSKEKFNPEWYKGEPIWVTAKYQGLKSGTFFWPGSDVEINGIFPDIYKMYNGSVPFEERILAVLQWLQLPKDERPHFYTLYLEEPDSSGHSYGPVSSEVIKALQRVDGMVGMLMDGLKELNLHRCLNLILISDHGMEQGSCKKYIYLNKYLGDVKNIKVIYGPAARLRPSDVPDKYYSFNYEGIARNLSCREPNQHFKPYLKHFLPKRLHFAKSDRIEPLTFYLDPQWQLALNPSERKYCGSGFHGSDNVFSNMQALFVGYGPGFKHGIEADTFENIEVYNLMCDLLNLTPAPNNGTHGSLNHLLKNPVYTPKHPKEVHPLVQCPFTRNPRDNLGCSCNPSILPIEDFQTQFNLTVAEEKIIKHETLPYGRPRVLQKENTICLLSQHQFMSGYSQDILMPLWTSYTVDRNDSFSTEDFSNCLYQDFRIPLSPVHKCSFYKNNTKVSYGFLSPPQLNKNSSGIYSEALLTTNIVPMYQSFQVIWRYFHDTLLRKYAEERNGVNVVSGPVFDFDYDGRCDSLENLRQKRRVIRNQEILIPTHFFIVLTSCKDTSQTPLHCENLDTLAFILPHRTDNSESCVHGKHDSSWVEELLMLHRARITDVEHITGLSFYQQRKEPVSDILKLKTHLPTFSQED
In words: Inhibition of NPP1 activity. The data set is classed as biochemical. Conditions: pNP-TMP 5·10^−5 M.

The target of data set [2] is T2, human NPP1. Put plainly: Hydrolysis by human NPP1. Conditions: for Hydrolysis by NPP1: 100 μM, 1 h, compared to ATP; for Relative hydrolysis by NPP1: over 2 h. The class given is in vitro ADME.

Turning to `Nc1ncnc2c1ncn2[C@@H]1O[C@H](COP(O)(=S)OP(=O)(O)C(Cl)(Cl)P(=O)(O)O)[C@@H](O)[C@H]1O` (single isomer, unassigned) [APPCCl2P-α-S, adenosine 5′-[Pα-thio]-β,γ-(dichloromethylene)triphosphate], at human NPP3, the “inhibition of the hydrolysis of ATP by NPP3” value is recorded as 33% and the inhibition at 100 µM was 23 to 43%.

On human NPP1 [1] (listed as APPCP-α-S A), `Nc1ncnc2c1ncn2[C@@H]1O[C@H](COP(O)(=S)OP(=O)(O)CP(=O)(O)O)[C@@H](O)[C@H]1O` (single isomer, unassigned; isomer a) [APPCP-α-S (isomer A), adenosine 5′-[Pα-thio]-β,γ-methylenetriphosphate] registered an IC50 of 16.3 ± 0.04 µM. The “Hydrolysis by NPP1” value at human NPP1 [2] is “fully stable”.

As for `Nc1ncnc2c1ncn2[C@@H]1O[C@H](COP(O)(=S)OP(=O)(O)C(Cl)(Cl)P(=O)(O)O)[C@@H](O)[C@H]1O` (single isomer, unassigned; isomer b) [APPCCl2P-α-S (isomer B), adenosine 5′-[Pα-thio]-β,γ-(dichloromethylene)triphosphate], at human NPP1 [1], the 50% inhibitory concentration (IC50) worked out at 31.2 ± 0.1 µM.

On to `Nc1ncnc2c1ncn2[C@@H]1O[C@H](COP(O)(=S)OP(=O)(O)CP(=O)(O)O)[C@@H](O)[C@H]1O` (single isomer, unassigned; isomer b) [APPCP-α-S (isomer B), adenosine 5′-[Pα-thio]-β,γ-methylenetriphosphate], for which, at human NPP1 [1] (listed as APPCP-α-S B), inhibition was half-maximal at 18.7 ± 0.03 µM (IC50). Further, on human NPP1 [2], the “Hydrolysis by NPP1” value is given as roughly 4%.

Turning to `Nc1ncnc2c1ncn2[C@@H]1O[C@H](COP(=O)(O)OP(O)(O)=S)[C@@H](O)[C@H]1O` [ADP-β-S, adenosine 5′-[β-thio]diphosphate, reference compound], the “inhibition of pnp-TMP hydrolysis by NPP3” value against human NPP3 was “less than 50%”. The “Relative hydrolysis by NPP1” value on human NPP1 [2] is “not metabolized at all”.

As for `Nc1ncnc2c1ncn2[C@@H]1O[C@H](COP(=O)(O)CP(=O)(O)OP(O)(O)=S)[C@@H](O)[C@H]1O` [APCPP-γ-S, adenosine 5′-[Pγ-thio]-α,β-methylenetriphosphate], at human NPP3, the inhibition at 100 µM was 23 to 43%. The same compound came in with an IC50 on human NPP1 [1] of 0.39 ± 0.001 µM.

With adenosine-5′-tetrathiobisphosphonate, the “inhibition of pnp-TMP hydrolysis by NPP3” value on human NPP3 was 7%. For the same compound, the “Relative hydrolysis by NPP1” value at human NPP1 [2] is “not metabolized at all”.

Regarding “di-adenosine-5′,5″-tetrathiobisphosphonate”, the “inhibition of pnp-TMP hydrolysis by NPP3” value against human NPP3 was determined as 20%. For the same compound, the “Relative hydrolysis by NPP1” value on human NPP1 [2] was “not metabolized at all”.

(Values after patent publication US20140378408A1, “NUCLEOSIDE 5'-PHOSPHOROTHIOATE ANALOGUES AND USES THEREOF” (BAR-ILAN UNIVERSITY, an Israeli University, priority 2012, published 2014).)
